In patent US7884116B2, “Octahydronaphthalene derivative and medicine” (Nippon Shinyaku Co., Ltd., priority 2003, dated 2011):

What follows are molecules tested on ICAM-1 expressed on HUVEC (assay: Test about suppression of ICAM-1 expression (enzyme immuno assay, EIA), TNF-α-stimulated HUVEC). Details: Homo sapiens, TNF-α 0.3 ng/ml.
Assay type: cell-based
Description: Using a culture broth containing serum for vascular endothelial cell (manufactured by Nissui Pharmaceutical Co., Ltd.) as a culture medium, HUVEC (umbilical vein endothelial cell manufactured by Morinaga Bioscience Institute) was cultured in a collagen-treated flask by the routine method.
For carrying out a test about the suppression of ICAM-1 expression with HUVEC, a collagen-treated 96-well plate was used, where HUVEC was added at 1 to 2×10^4 cells/well while the culture medium was added at 100 to 200 μl/well. The cell was cultured in 5% CO2 at 37° C. for 48 to 72 hours. Before adding a test solution, the culture medium (80 μl) was exchanged, to which 10 μl of a test solution preliminarily diluted was then added. The plate was allowed to stand alone in a CO2 incubator. 2 hours later, 10 μl of TNF-α (recombinant human TNF-α, manufactured by Genzyme) was added (to a final concentration of 0.3 ng/ml). The resulting plate was again allowed to stand alone in the CO2 incubator. 16 to 22 hours later, the cell was fixed with 1% p-formaldehyde solution. The cell was rinsed with a phosphate buffer containing Ca^2+ and Mg^2+, which was then treated with an anti-human ICAM-1 antibody (mouse IgG1, manufactured by Kyowa Medics) at ambient temperature for 30 minutes. After the cell was rinsed again with the phosphate buffer, the cell was treated with a peroxide-labeled anti-mouse IgG (H+L) (manufactured by Organon Teknik Corp.) for another 30 minutes. After the cell was again rinsed with the phosphate buffer, the color developed was measured, using a peroxidase chromogenic kit (manufactured by Sumitomo Bakelite Co., Ltd.), to determine ICAM-1 expressed on HUVEC as an expression-inhibiting ratio (%) to a non-drug group to calculate the IC50 value.

SMILES	IC50 [µM]
C/C(=C\C=C\[C@@H]1[C@H]2[C@H](C)[C@@H](O)[C@H](C)C[C@@H]2C=C[C@@H]1C)CO [Example 3, (2E,4E)-5-[(1S,2S,4aR,6R,7S,8S,8aS)-7-Hydroxy-2,6,8-trimethyl-1,2,4a,5,6,7,8,8a-octahydronaphthalen-1-yl]-2-methylpenta-2,4-dien-1-ol]	9.9
C/C(=C\C=C\[C@@H]1[C@H]2[C@H](C)[C@@H](O)[C@H](C)C[C@@H]2C=C[C@@H]1C)C(=O)NCc1ccccn1 [Example 7, N-(Pyridin-2-ylmethyl)-(2E,4E)-5-[(1S,2S,4aR,6R,7S,8S,8aS)-7-hydroxy-2,6,8-trimethyl-1,2,4a,5,6,7,8,8a-octahydronaphthalen-1-yl]-2-methylpenta-2,4-dienamide]	2
C/C(=C\C=C\[C@@H]1[C@H]2[C@H](C)[C@@H](O)[C@H](C)C[C@@H]2C=C[C@@H]1C)C(=O)NCc1ccccc1 [Example 8, N-Benzyl-(2E,4E)-5-[(1S,2S,4aR,6R,7S,8S,8aS)-7-hydroxy-2,6,8-trimethyl-1,2,4a,5,6,7,8,8a-octahydronaphthalen-1-yl]-2-methylpenta-2,4-dienamide]	0.47
COc1cccc(CNC(=O)/C(C)=C/C=C/[C@@H]2[C@H]3[C@H](C)[C@@H](O)[C@H](C)C[C@@H]3C=C[C@@H]2C)c1 [Example 9, N-(3-Methoxybenzyl)-(2E,4E)-5-[(1S,2S,4aR,6R,7S,8S,8aS)-7-hydroxy-2,6,8-trimethyl-1,2,4a,5,6,7,8,8a-octahydronaphthalen-1-yl]-2-methylpenta-2,4-dienamide]	2.1
C/C(=C\C=C\[C@@H]1[C@H]2[C@H](C)[C@@H](O)[C@H](C)C[C@@H]2C=C[C@@H]1C)C(=O)NCc1ccc(Cl)cc1 [Example 10, N-(4-Chlorobenzyl)-(2E,4E)-5-[(1S,2S,4aR,6R,7S,8S,8aS)-7-hydroxy-2,6,8-trimethyl-1,2,4a,5,6,7,8,8a-octahydronaphthalen-1-yl]-2-methylpenta-2,4-dienamide]	140
C/C(=C\C=C\[C@@H]1[C@H]2[C@H](C)[C@@H](O)[C@H](C)C[C@@H]2C=C[C@@H]1C)C(=O)NCc1ccc(C)cc1 [Example 11, N-(4-Methylbenzyl)-(2E,4E)-5-[(1S,2S,4aR,6R,7S,8S,8aS)-7-hydroxy-2,6,8-trimethyl-1,2,4a,5,6,7,8,8a-octahydronaphthalen-1-yl]-2-methylpenta-2,4-dienamide]	160
C/C(=C\C=C\[C@@H]1[C@H]2[C@H](C)[C@@H](O)[C@H](C)C[C@@H]2C=C[C@@H]1C)C(=O)NCCc1ccncc1 [Example 13, N-(Pyridin-4-ylethyl)-(2E,4E)-5-[(1S,2S,4aR,6R,7S,8S,8aS)-7-hydroxy-2,6,8-trimethyl-1,2,4a,5,6,7,8,8a-octahydronaphthalen-1-yl]-2-methylpenta-2,4-dienamide]	5.7
C/C(=C\C=C\[C@@H]1[C@H]2[C@H](C)[C@@H](O)[C@H](C)C[C@@H]2C=C[C@@H]1C)C(=O)NCCc1ccc(O)cc1 [Example 14, N-(4-Hydroxyphenethyl)-(2E,4E)-5-[(1S,2S,4aR,6R,7S,8S,8aS)-7-hydroxy-2,6,8-trimethyl-1,2,4a,5,6,7,8,8a-octahydronaphthalen-1-yl]-2-methylpenta-2,4-dienamide]	15
C/C(=C\C=C\[C@@H]1[C@H]2[C@H](C)[C@@H](O)[C@H](C)C[C@@H]2C=C[C@@H]1C)C(=O)Nc1ccccc1 [Example 16, N-Phenyl-(2E,4E)-5-[(1S,2S,4aR,6R,7S,8S,8aS)-7-hydroxy-2,6,8-trimethyl-1,2,4a,5,6,7,8,8a-octahydronaphthalen-1-yl]-2-methylpenta-2,4-dienamide]	15
CNC(=O)/C(C)=C/C=C/[C@@H]1[C@H]2[C@H](C)[C@@H](O)[C@H](C)C[C@@H]2C=C[C@@H]1C [Example 17, N-Methyl-(2E,4E)-5-[(1S,2S,4aR,6R,7S,8S,8aS)-7-hydroxy-2,6,8-trimethyl-1,2,4a,5,6,7,8,8a-octahydronaphthalen-1-yl]-2-methylpenta-2,4-dienamide]	2.6
